In ChEMBL document CHEMBL3132769, “Fragment growing to retain or alter the selectivity of anchored kinase hinge-binding fragments” (Medchemcomm, 2014) one finds inhibition data, which are given here for eight compounds.

The target of test [1] is Serine/threonine-protein kinase MARK2 (Homo sapiens) (UniProt Q7KZI7). Kind of test: Inhibition of human full length MARK2 expressed in baculovirus assessed as substrate phosphorylation using fluorescence-labelled peptides as substrate at 8 uM after 90 mins by microfluidic peptide phosphorylation assay.
The target in test [2] is T1, Serine/threonine-protein kinase D3 (Homo sapiens) (UniProt O94806).
T1 sequence (whole entry): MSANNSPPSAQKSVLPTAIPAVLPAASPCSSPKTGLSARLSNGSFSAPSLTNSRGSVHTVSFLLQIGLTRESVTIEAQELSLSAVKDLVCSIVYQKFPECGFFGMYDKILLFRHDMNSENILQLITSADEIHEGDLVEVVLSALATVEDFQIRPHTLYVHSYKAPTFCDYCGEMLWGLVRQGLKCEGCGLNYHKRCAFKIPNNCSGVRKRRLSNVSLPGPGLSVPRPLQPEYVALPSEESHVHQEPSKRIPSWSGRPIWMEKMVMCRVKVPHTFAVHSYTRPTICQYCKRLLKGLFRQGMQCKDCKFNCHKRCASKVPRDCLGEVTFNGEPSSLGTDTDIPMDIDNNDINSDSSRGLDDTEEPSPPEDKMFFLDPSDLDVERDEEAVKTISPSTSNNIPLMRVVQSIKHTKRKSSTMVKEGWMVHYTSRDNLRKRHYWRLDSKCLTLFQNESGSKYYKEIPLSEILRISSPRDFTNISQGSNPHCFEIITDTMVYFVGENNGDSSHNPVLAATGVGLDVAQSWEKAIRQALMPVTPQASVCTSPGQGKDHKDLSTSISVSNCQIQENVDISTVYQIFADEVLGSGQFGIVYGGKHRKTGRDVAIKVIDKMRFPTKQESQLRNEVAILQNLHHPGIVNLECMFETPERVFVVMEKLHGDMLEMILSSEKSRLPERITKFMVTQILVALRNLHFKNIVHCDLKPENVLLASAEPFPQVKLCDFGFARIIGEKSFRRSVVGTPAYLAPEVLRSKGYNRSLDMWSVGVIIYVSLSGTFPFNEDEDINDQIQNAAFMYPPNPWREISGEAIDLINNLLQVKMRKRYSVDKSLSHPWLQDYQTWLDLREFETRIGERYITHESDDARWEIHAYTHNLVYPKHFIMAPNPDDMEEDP
Kind of test: Inhibition of human full length PKD3 expressed in baculovirus assessed as substrate phosphorylation using fluorescence-labelled peptides as substrate at 420 uM after 90 mins by microfluidic peptide phosphorylation assay.

Test [3] concerns the target T2, Testis-specific serine/threonine-protein kinase 1 (Homo sapiens) (UniProt Q9BXA7).
T2 sequence (whole entry): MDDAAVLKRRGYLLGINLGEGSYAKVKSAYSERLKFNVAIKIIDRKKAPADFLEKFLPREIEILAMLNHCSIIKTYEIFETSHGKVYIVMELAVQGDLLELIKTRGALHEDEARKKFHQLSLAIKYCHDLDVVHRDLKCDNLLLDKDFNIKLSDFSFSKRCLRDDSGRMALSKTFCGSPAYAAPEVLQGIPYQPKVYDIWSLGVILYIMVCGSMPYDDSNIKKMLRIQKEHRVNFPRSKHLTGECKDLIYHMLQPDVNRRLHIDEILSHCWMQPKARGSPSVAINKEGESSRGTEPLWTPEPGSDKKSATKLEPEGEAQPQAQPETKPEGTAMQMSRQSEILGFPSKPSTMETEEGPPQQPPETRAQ
The settings on record: 0.1 uM.
Description: Inhibition of human full length TSSK1 expressed in baculovirus assessed as substrate phosphorylation using fluorescence-labelled peptides as substrate at 0.1 uM after 90 mins by microfluidic peptide phosphorylation assay

Test [4] deals with MAP kinase-activated protein kinase 3 (Homo sapiens) (UniProt Q16644). The settings on record: 0.1 uM.
Description: Inhibition of human full length MAPKAPK3 expressed in Escherichia coli cell assessed as substrate phosphorylation using fluorescence-labelled peptides as substrate at 0.1 uM after 90 mins by microfluidic peptide phosphorylation assay
Test [5] addresses Ribosomal protein S6 kinase alpha-4 (Homo sapiens) (UniProt O75676). Put plainly: Inhibition of human full length MSK2 expressed in baculovirus assessed as substrate phosphorylation using fluorescence-labelled peptides as substrate at 0.1 uM after 90 mins by microfluidic peptide phosphorylation assay.
Test [6] shares this target. Kind of test: Inhibition of human full length MSK2 expressed in baculovirus assessed as substrate phosphorylation using fluorescence-labelled peptides as substrate at 0.06 uM after 90 mins by microfluidic peptide phosphorylation assay.
The target of test [7] is MAP/microtubule affinity-regulating kinase 3 (Homo sapiens) (UniProt P27448). Kind of test: Inhibition of human full length c-TAK1 expressed in Escherichia coli cell assessed as substrate phosphorylation using fluorescence-labelled peptides as substrate at 9 uM after 90 mins by microfluidic peptide phosphorylation assay.
Test [8] addresses Calcium/calmodulin-dependent protein kinase type II subunit beta (Homo sapiens) (UniProt Q13554). Put plainly: Inhibition of human CAMK2 beta catalytic domain expressed in baculovirus assessed as substrate phosphorylation using fluorescence-labelled peptides as substrate at 9 uM after 90 mins by microfluidic peptide phosphorylation assay.
The subject of test [9] is Tyrosine-protein kinase ABL1 (Homo sapiens), P00519 [H396P]. Put plainly: Inhibition of human truncated ABL H396P mutant expressed in baculovirus assessed as substrate phosphorylation using fluorescence-labelled peptides as substrate at 9 uM after 90 mins by microfluidic peptide phosphorylation assay.
The target of test [10] is Protein kinase C delta type (Homo sapiens) (UniProt Q05655). Put plainly: Inhibition of human truncated PKC delta expressed in baculovirus assessed as substrate phosphorylation using fluorescence-labelled peptides as substrate at 2 uM after 90 mins by microfluidic peptide phosphorylation assay.
The target of test [11] is T3, Mitogen-activated protein kinase 13 (Homo sapiens) (UniProt O15264).
T3 sequence (whole entry): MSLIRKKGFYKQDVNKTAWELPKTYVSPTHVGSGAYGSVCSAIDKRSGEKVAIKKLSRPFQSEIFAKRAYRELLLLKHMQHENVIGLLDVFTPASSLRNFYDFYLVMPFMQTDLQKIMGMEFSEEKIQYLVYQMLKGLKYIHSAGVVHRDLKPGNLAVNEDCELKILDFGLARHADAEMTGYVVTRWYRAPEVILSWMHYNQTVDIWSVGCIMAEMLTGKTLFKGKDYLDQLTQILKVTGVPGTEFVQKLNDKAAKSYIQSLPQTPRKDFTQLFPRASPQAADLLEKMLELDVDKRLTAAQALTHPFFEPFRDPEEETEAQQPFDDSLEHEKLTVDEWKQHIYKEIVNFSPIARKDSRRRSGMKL
Kind of test: Inhibition of human full length p38 delta expressed in Escherichia coli cell assessed as substrate phosphorylation using fluorescence-labelled peptides as substrate at 95 uM after 90 mins by microfluidic peptide phosphorylation assay.

Test [12] deals with Hepatocyte growth factor receptor (Homo sapiens) (UniProt P08581). Kind of test: Inhibition of human MET cytoplasmic domain expressed in baculovirus assessed as substrate phosphorylation using fluorescence-labelled peptides as substrate at 95 uM after 90 mins by microfluidic peptide phosphorylation assay.
For test [13], the target named is Tyrosine-protein kinase Fyn (Homo sapiens) (UniProt P06241). Kind of test: Inhibition of human full length FYN expressed in baculovirus assessed as substrate phosphorylation using fluorescence-labelled peptides as substrate at 1000 uM after 90 mins by microfluidic peptide phosphorylation assay.
Test [14] concerns the target T2, Testis-specific serine/threonine-protein kinase 1 (Homo sapiens). Kind of test: Inhibition of human full length TSSK1 expressed in baculovirus assessed as substrate phosphorylation using fluorescence-labelled peptides as substrate at 1000 uM after 90 mins by microfluidic peptide phosphorylation assay.

Chain of Ribosomal protein S6 kinase alpha-4 (Homo sapiens) (O75676 whole entry, looked up): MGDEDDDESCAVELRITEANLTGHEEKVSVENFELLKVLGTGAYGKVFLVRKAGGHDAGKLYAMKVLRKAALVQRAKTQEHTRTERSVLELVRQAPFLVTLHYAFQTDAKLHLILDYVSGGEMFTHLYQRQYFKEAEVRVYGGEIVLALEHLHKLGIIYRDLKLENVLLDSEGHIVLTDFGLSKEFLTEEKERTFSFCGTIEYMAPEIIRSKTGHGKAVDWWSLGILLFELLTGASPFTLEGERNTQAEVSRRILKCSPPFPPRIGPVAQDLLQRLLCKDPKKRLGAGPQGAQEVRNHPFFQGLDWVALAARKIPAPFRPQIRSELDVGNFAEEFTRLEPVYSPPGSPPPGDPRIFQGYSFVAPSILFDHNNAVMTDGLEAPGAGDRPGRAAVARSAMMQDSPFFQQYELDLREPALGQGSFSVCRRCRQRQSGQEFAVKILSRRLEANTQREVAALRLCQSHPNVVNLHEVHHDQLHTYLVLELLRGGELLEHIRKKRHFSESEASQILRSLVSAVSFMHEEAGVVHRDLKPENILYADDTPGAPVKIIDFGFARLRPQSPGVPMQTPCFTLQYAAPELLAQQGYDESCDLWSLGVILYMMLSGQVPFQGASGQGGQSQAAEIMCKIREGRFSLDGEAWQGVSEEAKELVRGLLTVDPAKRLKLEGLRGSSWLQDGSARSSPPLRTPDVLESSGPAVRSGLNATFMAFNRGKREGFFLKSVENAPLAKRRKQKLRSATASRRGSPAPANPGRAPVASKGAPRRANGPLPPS
Chain of Protein kinase C delta type (Homo sapiens) (Q05655 whole entry, looked up, the tested form may be a part): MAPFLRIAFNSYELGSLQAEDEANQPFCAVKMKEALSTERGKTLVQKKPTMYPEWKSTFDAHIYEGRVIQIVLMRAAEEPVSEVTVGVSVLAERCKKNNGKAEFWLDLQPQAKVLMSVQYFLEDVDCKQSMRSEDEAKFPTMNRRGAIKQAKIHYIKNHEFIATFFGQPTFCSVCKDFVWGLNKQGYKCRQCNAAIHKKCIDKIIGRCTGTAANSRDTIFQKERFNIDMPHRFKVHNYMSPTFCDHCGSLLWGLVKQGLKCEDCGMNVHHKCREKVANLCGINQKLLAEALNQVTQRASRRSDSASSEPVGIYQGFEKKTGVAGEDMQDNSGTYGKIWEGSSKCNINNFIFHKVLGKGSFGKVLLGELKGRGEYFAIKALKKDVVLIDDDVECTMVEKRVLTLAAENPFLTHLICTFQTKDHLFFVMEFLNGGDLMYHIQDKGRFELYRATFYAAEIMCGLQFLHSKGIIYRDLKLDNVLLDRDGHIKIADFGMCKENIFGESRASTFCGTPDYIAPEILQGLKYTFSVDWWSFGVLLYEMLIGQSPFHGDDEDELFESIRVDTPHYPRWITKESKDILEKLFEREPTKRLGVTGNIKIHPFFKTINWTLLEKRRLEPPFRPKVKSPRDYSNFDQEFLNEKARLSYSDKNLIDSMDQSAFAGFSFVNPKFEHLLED
Chain of Tyrosine-protein kinase Fyn (Homo sapiens) (P06241 2-537 limits assumed): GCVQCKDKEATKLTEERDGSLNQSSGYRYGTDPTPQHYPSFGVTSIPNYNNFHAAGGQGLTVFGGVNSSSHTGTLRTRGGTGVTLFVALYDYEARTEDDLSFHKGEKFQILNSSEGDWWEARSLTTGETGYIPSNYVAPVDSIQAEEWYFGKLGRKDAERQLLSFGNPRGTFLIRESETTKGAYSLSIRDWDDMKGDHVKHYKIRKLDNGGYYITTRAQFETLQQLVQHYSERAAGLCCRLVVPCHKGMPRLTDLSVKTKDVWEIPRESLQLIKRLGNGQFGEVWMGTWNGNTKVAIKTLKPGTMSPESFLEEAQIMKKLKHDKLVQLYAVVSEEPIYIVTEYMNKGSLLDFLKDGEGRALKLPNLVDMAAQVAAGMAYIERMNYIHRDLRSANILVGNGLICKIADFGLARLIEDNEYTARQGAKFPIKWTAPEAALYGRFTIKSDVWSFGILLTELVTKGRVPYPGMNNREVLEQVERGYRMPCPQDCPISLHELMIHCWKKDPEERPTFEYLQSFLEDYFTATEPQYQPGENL
Chain of Calcium/calmodulin-dependent protein kinase type II subunit beta (Homo sapiens) (Q13554 whole entry, the tested form may be a part): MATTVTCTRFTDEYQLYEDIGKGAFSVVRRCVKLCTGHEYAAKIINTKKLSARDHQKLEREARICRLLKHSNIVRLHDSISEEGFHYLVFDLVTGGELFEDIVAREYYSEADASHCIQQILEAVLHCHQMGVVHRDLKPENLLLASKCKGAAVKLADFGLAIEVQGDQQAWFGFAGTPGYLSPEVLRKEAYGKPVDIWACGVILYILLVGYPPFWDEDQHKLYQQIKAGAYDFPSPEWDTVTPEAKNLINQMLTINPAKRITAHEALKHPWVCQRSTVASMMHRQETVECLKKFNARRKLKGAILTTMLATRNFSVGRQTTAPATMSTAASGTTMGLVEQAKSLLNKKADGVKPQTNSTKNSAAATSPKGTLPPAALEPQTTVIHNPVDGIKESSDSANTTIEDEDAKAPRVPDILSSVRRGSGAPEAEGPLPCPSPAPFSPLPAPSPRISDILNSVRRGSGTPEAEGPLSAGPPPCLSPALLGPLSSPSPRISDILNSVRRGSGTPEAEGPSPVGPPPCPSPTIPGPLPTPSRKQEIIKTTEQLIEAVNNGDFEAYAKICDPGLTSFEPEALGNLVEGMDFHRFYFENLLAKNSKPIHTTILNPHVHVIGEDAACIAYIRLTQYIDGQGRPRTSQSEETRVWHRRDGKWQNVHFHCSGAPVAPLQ
Chain of MAP kinase-activated protein kinase 3 (Homo sapiens) (Q16644 whole entry, looked up): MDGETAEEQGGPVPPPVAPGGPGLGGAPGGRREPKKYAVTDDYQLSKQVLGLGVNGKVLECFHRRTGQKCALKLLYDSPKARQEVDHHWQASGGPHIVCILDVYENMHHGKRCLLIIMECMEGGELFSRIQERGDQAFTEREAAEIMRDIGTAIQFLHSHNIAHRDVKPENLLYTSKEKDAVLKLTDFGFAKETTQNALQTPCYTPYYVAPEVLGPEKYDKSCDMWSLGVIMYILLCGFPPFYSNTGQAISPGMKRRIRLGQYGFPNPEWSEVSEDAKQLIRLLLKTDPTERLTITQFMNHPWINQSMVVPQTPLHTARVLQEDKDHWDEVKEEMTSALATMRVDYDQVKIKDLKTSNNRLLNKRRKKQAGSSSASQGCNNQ
Chain of Hepatocyte growth factor receptor (Homo sapiens) (P08581 whole entry, the tested form may be a part): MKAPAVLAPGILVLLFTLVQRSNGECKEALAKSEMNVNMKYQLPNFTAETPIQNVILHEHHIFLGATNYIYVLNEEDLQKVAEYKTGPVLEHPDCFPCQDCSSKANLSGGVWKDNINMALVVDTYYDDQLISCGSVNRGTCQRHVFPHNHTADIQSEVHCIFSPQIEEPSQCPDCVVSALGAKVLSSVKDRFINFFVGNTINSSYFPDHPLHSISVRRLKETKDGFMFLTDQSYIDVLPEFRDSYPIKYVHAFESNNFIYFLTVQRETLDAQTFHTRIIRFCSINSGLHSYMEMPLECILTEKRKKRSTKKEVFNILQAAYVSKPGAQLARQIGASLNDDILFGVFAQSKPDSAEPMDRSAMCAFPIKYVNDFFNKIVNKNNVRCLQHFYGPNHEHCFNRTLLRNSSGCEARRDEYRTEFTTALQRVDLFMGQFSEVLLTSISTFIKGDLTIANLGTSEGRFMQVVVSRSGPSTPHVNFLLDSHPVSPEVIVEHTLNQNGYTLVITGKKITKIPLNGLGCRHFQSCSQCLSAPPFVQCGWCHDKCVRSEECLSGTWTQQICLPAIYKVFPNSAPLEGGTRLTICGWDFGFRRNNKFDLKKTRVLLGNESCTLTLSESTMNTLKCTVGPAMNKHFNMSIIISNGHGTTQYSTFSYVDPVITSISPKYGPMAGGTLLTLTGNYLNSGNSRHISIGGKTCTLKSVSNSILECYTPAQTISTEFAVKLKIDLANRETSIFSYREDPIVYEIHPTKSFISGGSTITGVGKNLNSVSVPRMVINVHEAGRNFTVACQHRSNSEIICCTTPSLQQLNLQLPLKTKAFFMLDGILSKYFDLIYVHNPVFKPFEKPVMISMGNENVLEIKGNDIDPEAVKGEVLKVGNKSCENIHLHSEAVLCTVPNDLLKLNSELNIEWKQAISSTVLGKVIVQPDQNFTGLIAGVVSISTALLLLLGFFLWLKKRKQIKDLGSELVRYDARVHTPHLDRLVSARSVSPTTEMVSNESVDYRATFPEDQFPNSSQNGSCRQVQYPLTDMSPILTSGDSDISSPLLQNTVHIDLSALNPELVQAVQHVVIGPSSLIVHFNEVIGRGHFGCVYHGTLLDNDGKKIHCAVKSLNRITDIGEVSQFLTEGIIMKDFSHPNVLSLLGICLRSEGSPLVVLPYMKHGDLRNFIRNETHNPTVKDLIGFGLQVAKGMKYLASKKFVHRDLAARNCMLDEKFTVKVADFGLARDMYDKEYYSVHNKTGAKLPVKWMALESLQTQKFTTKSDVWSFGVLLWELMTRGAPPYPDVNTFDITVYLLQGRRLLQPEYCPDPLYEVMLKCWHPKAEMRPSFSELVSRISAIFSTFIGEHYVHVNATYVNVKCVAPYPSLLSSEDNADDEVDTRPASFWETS

Take `NCC1CCN(c2ncnc3[nH]ccc23)CC1`: in test [1], the inhibition (in general, the relative decrease from the control value, in per cent) worked out at 37%.

With `c1nc(N2CCOCC2)c2nc[nH]c2n1`, the inhibition in [2] was 85%.

As to `C[C@H](CN(C)C)Oc1nc(Nc2cc3cccc(Cl)c3cn2)cnc1C#N`, the results for the inhibition in test [3], in test [4] and in [5] were 0%, 0% and 13.5%, respectively.

Regarding `NC1(Cc2ccc(Cl)cc2)CCN(c2ncnc3[nH]ccc23)CC1`, the inhibition in test [6] was found to be 0%.

As to `NCC1CN(c2ncnc3[nH]c4cnccc4c23)CCO1` (centres undefined), the results for the inhibition in [7], in [8] and in test [9] were 30%, 4% and 16%, respectively.

`NC1CCN(c2ncnc3[nH]ccc23)CC1`: the inhibition in test [10] is 33%.

Consider `NCCc1ccc(-c2ncnc3[nH]cnc23)cc1`, for which the inhibition in test [11] came out at 13%; in [12] it was 5.5%.

For the compound `c1cnc2[nH]ccc2c1`, the inhibition came out at 24% in test [13] and 52.5% in [14].
